Results taken from ChEMBL document CHEMBL1201862, “PubChem BioAssay data set” (2004).
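48-hour exposure; five concentrations; linearly interpolated endpoints. GI50: concentration for 50% inhibition of growth.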 The source made the active and inactive calls. Rule as the data show it: active = GI50 up to about 1.1 µM and inactive = higher.

Legend:
Test in all cases: NCI anticancer screen, dose series, 48 h
786-0 = test system: 786-0
A549 = test system: A549
DU-145 = test system: DU-145
EKVX = test system: EKVX
HL-60 = test system: HL-60
M14 = test system: M14
MCF7 = test system: MCF7
MDA-MB-231 = test system: MDA-MB-231
NCI-H522 = test system: NCI-H522
NCI/ADR-RES = test system: NCI/ADR-RES
PC-3 = test system: PC-3
SF-295 = test system: SF-295
SR = test system: SR
SW-620 = test system: SW-620
UACC-257 = test system: UACC-257
UACC-62 = test system: UACC-62
HCC 2998 = test system: HCC 2998

Measured: GI50

CC12CCC3c4ccc(O)cc4CCC3C1C/C(=N\O)C2O (stereo not drawn)
inactive: 786-0 > 100 µM | A549 > 100 µM | DU-145 > 100 µM | EKVX 26.8 µM | HL-60 92.9 µM | M14 > 100 µM | MCF7 > 100 µM | MDA-MB-231 > 100 µM | NCI-H522 > 100 µM | NCI/ADR-RES > 100 µM | PC-3 > 100 µM | SF-295 > 100 µM | SR > 100 µM | SW-620 > 100 µM | UACC-257 > 100 µM | UACC-62 > 100 µM

Oc1ccc(Cl)cc1C1=NC(/N=C\c2ccccc2)=NC(c2ccccc2)C1 (stereo not drawn)
inactive: 786-0 19.1 µM | A549 21.7 µM | DU-145 > 100 µM | EKVX > 100 µM | M14 > 100 µM | MCF7 7.83 µM | MDA-MB-231 35.6 µM | NCI-H522 12.1 µM | NCI/ADR-RES 21.4 µM | PC-3 > 100 µM | SF-295 > 100 µM | SR 5.5 µM | SW-620 > 100 µM | UACC-257 > 100 µM | UACC-62 > 100 µM

O=C(O)c1cccc2c1/C(=N/Nc1ccccc1)CC2
inactive: 786-0 > 100 µM | DU-145 > 100 µM | EKVX > 100 µM | HCC 2998 > 100 µM | M14 16.6 µM | MCF7 45.1 µM | MDA-MB-231 > 100 µM | NCI-H522 > 100 µM | NCI/ADR-RES > 100 µM | PC-3 > 100 µM | SF-295 17.2 µM | SR > 100 µM | SW-620 > 100 µM | UACC-257 65.9 µM

COC1(OC)c2no[n+]([O-])c2CCC1O (stereo not drawn)
inactive: 786-0 > 100 µM | A549 > 100 µM | DU-145 > 100 µM | EKVX > 100 µM | HCC 2998 > 100 µM | M14 > 100 µM | MCF7 > 100 µM | MDA-MB-231 > 100 µM | NCI-H522 > 100 µM | NCI/ADR-RES > 100 µM | PC-3 > 100 µM | SF-295 > 100 µM | SR > 100 µM | SW-620 > 100 µM | UACC-257 > 100 µM | UACC-62 > 100 µM

CC1=NN(c2cccc(Cl)c2)C2(SCC(=O)N2c2nc3ccccc3s2)C1=CC=Cc1ccccc1 (stereo not drawn)
inactive: 786-0 35.2 µM | DU-145 21.3 µM | EKVX 54.2 µM | HCC 2998 32.3 µM | HL-60 1.47 µM | M14 32.1 µM | MCF7 25.5 µM | MDA-MB-231 27.9 µM | NCI-H522 26.7 µM | NCI/ADR-RES 34.8 µM | PC-3 29.7 µM | SF-295 35.2 µM | SR 16.4 µM | SW-620 26.3 µM | UACC-257 36.9 µM

CCOC(=O)c1cc(C2CCN(Cc3ccccc3)C2=O)c(C(=O)C(=[N+]=[N-])C(C)=O)[nH]1 (stereo not drawn)
inactive: 786-0 > 100 µM | A549 > 100 µM | DU-145 > 100 µM | EKVX > 100 µM | HCC 2998 > 100 µM | HL-60 > 100 µM | M14 > 100 µM | MCF7 > 100 µM | MDA-MB-231 > 100 µM | NCI/ADR-RES > 100 µM | PC-3 > 100 µM | SF-295 > 100 µM | SR > 100 µM | SW-620 > 100 µM | UACC-257 > 100 µM | UACC-62 > 100 µM

O=C(O)CCc1nc(-c2ccccc2)c(-c2ccccc2)o1 [OXAPROZIN]
inactive: 786-0 > 100 µM | A549 > 100 µM | DU-145 > 100 µM | EKVX > 100 µM | HL-60 > 100 µM | M14 > 100 µM | MCF7 > 100 µM | MDA-MB-231 > 100 µM | NCI-H522 > 100 µM | NCI/ADR-RES > 100 µM | PC-3 > 100 µM | SF-295 > 100 µM | SR > 100 µM | SW-620 > 100 µM | UACC-257 > 100 µM | UACC-62 > 100 µM
